Assay results published in PMC4706618, “Comparison of bactericidal and cytotoxic activities of trichogin analogs” (Data in Brief, 2015).
Values after ≈ are worked out from the molar mass of the structure shown. Read-outs that look alike come from different tables or passages of the source. Non-standard residues stand in square brackets, D forms with d. Residues, ends and D or L forms follow the SMILES beside them. *: point of attachment. Leu(ol) = CC(C)C[C@H](N)CO; Octanoyl = CCCCCCCC(=O)*; Aib = CC(C)(N)C(=O)O

Legend:
[1] = tested on: S. aureus, ATCC BAA-44 (methicillin-resistant strain); format: cell-based, Staphylococcus aureus
Method: (§1) E. coli ATCC 25922, the methicillin-resistant strain of S. aureus, ATCC BAA-44, P. aeruginosa ATCC 25668 and S. epidermidis ATCC 700565 was a kind gift of Prof. Elena Reddi (Dept. of Biology, University of Padova, Italy). Cultures were maintained in Luria Bertani (LB) agar. MICs (Minimal inhibitory concentrations) of the peptides were determined using the broth microdilution method. Two-fold serial dilutions of each peptide, from 1 to 64 μM, were prepared in LB and 50 μl per well were arranged in sterile 96-well plates (Falcon). Then, an aliquot of bacterial cell suspension was added to each well, at a final concentration of 5×10^5 CFU/ml.

[2] = tested on: S. epidermidis ATCC 700565; format: cell-based, Staphylococcus epidermidis
Method: as §1

[3] = tested on: P. aeruginosa ATCC 25668; format: cell-based, Pseudomonas aeruginosa
Method: as §1

[4] = tested on: E. coli ATCC 25922; format: cell-based, Escherichia coli
Method: as §1

[5] = tested on: Gram^− and Gram^+ bacteria; experiment: Antibacterial activity, all strains taken together; format: cell-based; settings: additional U at position 6 or U1 replaced with L; in words
Method: as §1

[6] = tested on: human cells (lymphocytes, PMNs, monocytes, HL60, HeLa, A431, A549, CCD34Lu); experiment: Cytotoxicity on human cells, MTS reduction and LDH release; format: cell-based; settings: 24 h, MTS/LDH EC50, all tested cells; in words
Method: (§2) To monitor the possible differential cytocidal effect of trichogin and its analogs on human cells (healthy and cancer cells, non-leukocytes and leukocytes), we incubated the peptides with (i) primary human leukocytes (lymphocytes, PMNs and monocytes), freshly isolated from blood of healthy donors (ii) the monocytes-like HL60 cell line from human myeloid leukemia, and (iii) three tumor-derived non-leukocyte cells lines: HeLa ([…]), A431 (human epidermoid carcinoma) and A549 (human lung carcinoma) and the in vitro stabilized line CCD34Lu (from human normal lung).
(§3) HeLa, A431 and CCD34-Lu cells were maintained in DMEM medium (Gibco), A549 in F12 medium (Gibco) and HL60 in RPMI medium (Gibco), supplemented with 10% FCS (Euroclone) and antibiotics (penicillin and streptomycin, 100 U/ml, Invitrogen) at 37 °C in a humidified atmosphere containing 5% (v/v) CO2; cells were split every 2–3 days. Human monocytes, polymorphonuclear leukocytes (PMNs) and lymphocytes were purified from buffy coats of healthy donors, kindly provided by the Centro Immunotrasfusionale, Hospital of Padova. Briefly, for monocyte purification, peripheral blood mononuclear cells (PBMC) were isolated from buffy coats of healthy donors by density gradient centrifugation on Ficoll-Paque Plus (GE Health care), which density is optimized for the isolation of mononuclear cells. Separate monocyte and T-cell fractions were obtained from PBMCs by Percoll density gradient centrifugation (GE Health care); residual lymphocytes were removed by incubation in 2% fetal calf serum (FCS) RPMI at 37 °C and subsequently washed to eliminate non adherent cells. Unless otherwise specified, cells were kept at 37 °C in a humidified atmosphere containing 5% (v/v) CO2 in RPMI-1640 supplemented with 10% FCS. For PMNs purification, the pellet of cells obtained after the centrifugation on Ficoll gradient was subjected to dextran erythrocytes precipitation; residual erythrocytes were removed by hypotonic lysis in 155 mM NH4Cl, 10 mM KHCO3, and […] Na2EDTA at pH 7.4 and cells were cultured in RPMI medium, supplemented with 10% FCS. For lymphocytes preparation, buffy coats were incubated with 50 μl/ml of Rosette Sep® Human T Cell Enrichment Cocktail (StemCell Technologies). Blood was then centrifuged over a Ficoll gradient and cells were cultured in RPMI medium, supplemented with 10% FCS.
(§4) Twenty-four hours before the experiment, A431, HeLa, A549 and CC34-Lu cells were detached by means of trypsin treatment (Gibco), counted and seeded onto a 96 wells/plate (8×10^3 cells/well, Falcon). After purification, monocytes were seeded onto a 96 wells/plate (2×10^6/well) and left to adhere to the plastic; then cells were immediately treated with stimuli. PMNs and lymphocytes (2×10^6 cells/well) and HL60 cells (40×10^3) were seeded onto cell plates and subsequently treated. Different peptides were diluted in culture medium (from 20 μM to 1 μM) and added to the cells. As a […] control cells were treated with medium without stimuli. Twenty-four hours after treatment, the cell supernatant was collected for subsequent assay (LDH assay) and cells were tested using a CellTiter 96® AQueous One Solution Reagent (Promega). Plates were read with an ELISA reader (Amersham Biosciences) at 492 nm. Data were expressed as % of absorbance value compared to untreated cells (assumed as 100% viable). Alternatively, the EC50 (the concentration of drug where 50% of cells died) was calculated for each peptide and each kind of tested cell.
(§5) 50 μl of the cell supernatant was tested with a CytoTox 96® Non-Radioactive Cytotoxicity Assay kit (Promega). EC50 (the concentration of drug that induced the lysis of 50% of the total cell number) was calculated for each peptide and each kind of tested cell.

[7] = as above; format: cell-based; settings: human, from MTS and LDH EC50 values, compared with trichogin, all cell models, read-out: reduction of cytocidal effect / cell toxicity (% inhibition)
Method: as §2, §3, §4, §5

[8] = after 24 h at 37 °C, broth microdilution in LB, 5×10^5 CFU/ml, ±SE, N≥4, peptide dose range 0–64 µM

MIC S. aureus ([1]; ATCC BAA-44, 24 h) | MIC S. epidermis ([2]; ATCC 700565, 24 h) | SMILES | MIC P. aeruginosa ([3]; ATCC 25668, 24 h) | MIC E. coli ([4]; ATCC 25922, 24 h) | antibacterial activity compared with the K-containing analogs [5] | cytotoxicity compared with trichogin or the corresponding analog [6] | inhibition at 24 h [7] | MIC S. aureus [1, 8] | MIC S. epidermis [2, 8] | MIC P. aeruginosa [3, 8] | MIC E. coli [4, 8] | change of anti S. aureus activity compared with trichogin ([1]; MIC after 24 h, in words)
4.3 ± 1.8 µM (≈ 5.5 µg/mL) | 4 ± 0.9 µM (≈ 5.12 µg/mL) | CCCCCCCC(=O)NC(C)(C)C(=O)N[C@@H](CCCCN)C(=O)N[C@@H](CC(C)C)C(=O)NC(C)(C)C(=O)N[C@@H](CCCCN)C(=O)NCC(=O)N[C@@H](CC(C)C)C(=O)NC(C)(C)C(=O)N[C@@H](CCCCN)C(=O)N[C@H](C(=O)N[C@H](CO)CC(C)C)[C@@H](C)CC [K2K5K9] (Octanoyl-[Aib]KL[Aib]KGL[Aib]KI[Leu(ol)]) | 13.3 ± 4.1 µM (≈ 17 µg/mL) | 14.9 ± 8.6 µM (≈ 19.1 µg/mL) |  |  |  |  |  |  |  | 
3.3 ± 1.3 µM (≈ 3.99 µg/mL) | 5 ± 2.4 µM (≈ 6.04 µg/mL) | CCCCCCCC(=O)NC(C)(C)C(=O)N[C@@H](CCCCN)C(=O)N[C@@H](CC(C)C)C(=O)NC(C)(C)C(=O)N[C@@H](CCCCN)C(=O)NCC(=O)N[C@@H](CC(C)C)C(=O)NC(C)(C)C(=O)NCC(=O)N[C@H](C(=O)N[C@H](CO)CC(C)C)[C@@H](C)CC [K2K5] (Octanoyl-[Aib]KL[Aib]KGL[Aib]GI[Leu(ol)]) | 16 ± 5 µM (≈ 19.3 µg/mL) | 13.7 ± 3.9 µM (≈ 16.6 µg/mL) |  |  |  |  |  |  |  | 
2.8 ± 1.1 µM (≈ 3.38 µg/mL) | 3.2 ± 2.6 µM (≈ 3.87 µg/mL) | CCCCCCCC(=O)NC(C)(C)C(=O)N[C@@H](CCCCN)C(=O)N[C@@H](CC(C)C)C(=O)NC(C)(C)C(=O)NCC(=O)N[C@@H](CCCCN)C(=O)N[C@@H](CC(C)C)C(=O)NC(C)(C)C(=O)NCC(=O)N[C@H](C(=O)N[C@H](CO)CC(C)C)[C@@H](C)CC [K2K6] (Octanoyl-[Aib]KL[Aib]GKL[Aib]GI[Leu(ol)]) | 17.6 ± 8.8 µM (≈ 21.3 µg/mL) | 12.6 ± 4.3 µM (≈ 15.2 µg/mL) |  |  |  |  |  |  |  | 
 |  | CCCCCCCC(=O)NC(C)(C)C(=O)NCC(=O)N[C@@H](CC(C)C)C(=O)NC(C)(C)C(=O)N[C@@H](CCCCN)C(=O)NCC(=O)N[C@@H](CC(C)C)C(=O)NC(C)(C)C(=O)NCC(=O)N[C@H](C(=O)N[C@H](CO)CC(C)C)[C@@H](C)CC [K5] (Octanoyl-[Aib]GL[Aib]KGL[Aib]GI[Leu(ol)]) | >64 µM | 8 ± 2 µM (≈ 9.1 µg/mL) |  |  |  | 1 ± 0 µM (≈ 1.14 µg/mL) | 2 ± 0 µM (≈ 2.28 µg/mL) |  |  | 
 |  | CCCCCCCC(=O)N[C@@H](CC(C)C)C(=O)NCC(=O)N[C@@H](CC(C)C)C(=O)NC(C)(C)C(=O)NCC(=O)NCC(=O)N[C@@H](CC(C)C)C(=O)NC(C)(C)C(=O)N[C@@H](CCCCN)C(=O)N[C@H](C(=O)N[C@H](CO)CC(C)C)[C@@H](C)CC [L1K9] (Octanoyl-LGL[Aib]GGL[Aib]KI[Leu(ol)]) |  |  | failed to increase the antibacterial activity | not significantly different |  | 4.7 ± 1.6 µM (≈ 5.48 µg/mL) | 4.6 ± 1.5 µM (≈ 5.36 µg/mL) | >64 µM | 41.1 ± 15.6 µM (≈ 47.9 µg/mL) | 
 |  | CCCCCCCC(=O)N[C@@H](CC(C)C)C(=O)NCC(=O)N[C@@H](CC(C)C)C(=O)N[C@@H](CC(C)C)C(=O)NCC(=O)NCC(=O)N[C@@H](CC(C)C)C(=O)N[C@@H](CC(C)C)C(=O)NCC(=O)N[C@H](C(=O)N[C@H](CO)CC(C)C)[C@@H](C)CC [L1L4L8] (Octanoyl-LGLLGGLLGI[Leu(ol)]) |  |  |  |  | 50 to 70% |  |  |  |  | 
32 ± 0 µM (≈ 35.9 µg/mL) | >64 µM | CCCCCCCC(=O)N[C@@H](CC(C)C)C(=O)NCC(=O)N[C@@H](CC(C)C)C(=O)NC(C)(C)C(=O)NCC(=O)NCC(=O)N[C@@H](CC(C)C)C(=O)N[C@@H](CC(C)C)C(=O)NCC(=O)N[C@H](C(=O)N[C@H](CO)CC(C)C)[C@@H](C)CC [L1L8] (Octanoyl-LGL[Aib]GGLLGI[Leu(ol)]) | >64 µM | >64 µM |  |  |  |  |  |  |  | 
 |  | CCCCCCCC(=O)NC(C)(C)C(=O)NCC(=O)N[C@@H](CC(C)C)C(=O)N[C@@H](CC(C)C)C(=O)NCC(=O)NCC(=O)N[C@@H](CC(C)C)C(=O)NC(C)(C)C(=O)NCC(=O)N[C@H](C(=O)N[C@H](CO)CC(C)C)[C@@H](C)CC [L4] (Octanoyl-[Aib]GLLGGL[Aib]GI[Leu(ol)]) |  |  |  |  | 50 to 70% | >64 µM | >64 µM | >64 µM | >64 µM | no such increase

SMILES | MIC S. aureus ([1]; ATCC BAA-44, 24 h) | MIC S. epidermis ([2]; ATCC 700565, 24 h) | MIC P. aeruginosa ([3]; ATCC 25668, 24 h) | MIC E. coli ([4]; ATCC 25922, 24 h) | antibacterial activity compared with the K-containing analogs [5] | cytotoxicity compared with trichogin or the corresponding analog [6] | inhibition at 24 h [7] | MIC S. aureus [1, 8] | MIC S. epidermis [2, 8] | MIC P. aeruginosa [3, 8] | MIC E. coli [4, 8] | change of anti S. aureus activity compared with trichogin ([1]; MIC after 24 h, in words)
CCCCCCCC(=O)NC(C)(C)C(=O)N[C@@H](CCCCN)C(=O)N[C@@H](CC(C)C)C(=O)NC(C)(C)C(=O)N[C@@H](CCCCN)C(=O)NC(C)(C)C(=O)N[C@@H](CC(C)C)C(=O)NC(C)(C)C(=O)N[C@@H](CCCCN)C(=O)N[C@H](C(=O)N[C@H](CO)CC(C)C)[C@@H](C)CC [K2K5K9U6] (Octanoyl-[Aib]KL[Aib]K[Aib]L[Aib]KI[Leu(ol)]) | 4 ± 0 µM (≈ 5.23 µg/mL) | 8 ± 0 µM (≈ 10.5 µg/mL) | 8 ± 0 µM (≈ 10.5 µg/mL) | 8 ± 0 µM (≈ 10.5 µg/mL) | failed to increase the antibacterial activity | increased cytotoxicity |  |  |  |  |  | 
CCCCCCCC(=O)NC(C)(C)C(=O)NCC(=O)N[C@@H](CC(C)C)C(=O)NC(C)(C)C(=O)N[C@@H](CCCCN)C(=O)N[C@@H](CCCCN)C(=O)N[C@@H](CC(C)C)C(=O)NC(C)(C)C(=O)NCC(=O)N[C@H](C(=O)N[C@H](CO)CC(C)C)[C@@H](C)CC [K5K6] | 4 ± 0 µM (≈ 4.83 µg/mL) | 4 ± 1 µM (≈ 4.83 µg/mL) | 16 ± 0 µM (≈ 19.3 µg/mL) | 16 ± 0 µM (≈ 19.3 µg/mL) |  |  | 50 to 60% |  |  |  |  | 
CCCCCCCC(=O)N[C@@H](CC(C)C)C(=O)N[C@@H](CCCCN)C(=O)N[C@@H](CC(C)C)C(=O)NC(C)(C)C(=O)NCC(=O)NCC(=O)N[C@@H](CC(C)C)C(=O)NC(C)(C)C(=O)NCC(=O)N[C@H](C(=O)N[C@H](CO)CC(C)C)[C@@H](C)CC [L1K2] (Octanoyl-LKL[Aib]GGL[Aib]GI[Leu(ol)]) | 4.6 ± 1.5 µM (≈ 5.36 µg/mL) | 4.7 ± 1.6 µM (≈ 5.48 µg/mL) | >64 µM | 22.9 ± 8.6 µM (≈ 26.7 µg/mL) | failed to increase the antibacterial activity | not significantly different |  |  |  |  |  | 
